Data set [1] relates to L. donovani promastigotes. The data set is described as follows: In vitro anti-leishmanial assay (Alamar blue, promastigotes). Format: cell-based, Leishmania donovani. The conditions noted are these: for IC50: Leishmania donovani, 48 h, read-out: L. donvani IC50; for SI: SI = CC50 /IC50, THP1 vs promastigotes. How it is done: Anti-leishmanial activity in vitro was described in terms of IC50, which is the effective concentration (μg/mL) required to achieve 50% growth inhibition, with promastigotes in their exponential growth phase.
In vitro anti-leishmanial assay. The antileishmanial activity of the compounds was tested in vitro against a culture of L. donovani promastigotes. The promastigotes were grown in RPMI 1640 medium supplemented with 10% fetal calf serum (Gibco Chem. Co., 81 Wyman Street, Waltham, MA, USA) at 26 °C. A three day old culture was diluted to 5 × 10^5 promastigotes/mL. Drug dilutions were prepared directly in cell suspension in 96-well plates. Plates were incubated at 26 °C for 48 h and the growth of Leishmania promastigotes was determined by the Alamar blue assay as described earlier. Standard fluorescence was measured on a Fluostar Galaxy plate reader (BMG Lab Technologies, Offenburg, Germany) at an excitation wavelength of 544 nm and an emission wavelength of 590 nm. […] IC50 values were computed from dose-response curves as above. The tested compounds were diluted with six concentrations (from 40–0.0128 μg/mL). Cytotoxicity assay. The in vitro cytotoxicity was determined against human monocytic leukemia cells (THP1) with a simple colorimetric method using the dye Alamar Blue. […] Cells were grown to a density between 0.2 and 1 × 10^6 cells/mL. Culture medium was replaced every 2–3 days with fresh growth medium. DMSO was used as the solvent, and the test compounds was with six concentrations from 10–0.0032 μg/mL.

The nature of data set [2]: Cytotoxicity assay (Alamar Blue). The conditions noted are these: human, concentrations 10–0.0032 μg/mL. The data set is classed as cell-based. The procedure: In order to verify the safety of maleimides, they were tested for cytotoxicity against human monocytic leukemia cells (THP1) 50% cytotoxic concentration values represent the concentration of compound required to kill 50% of the THP1 cells were calculated (CC50). The selectivity indices were calculated using the formula SI = CC50 /IC50, against promastigotes. […] SIs of 16 and 42 were greater than 781.3.
In vitro anti-leishmanial assay. The antileishmanial activity of the compounds was tested in vitro against a culture of L. donovani promastigotes. The promastigotes were grown in RPMI 1640 medium supplemented with 10% fetal calf serum (Gibco Chem. Co., 81 Wyman Street, Waltham, MA, USA) at 26 °C. A three day old culture was diluted to 5 × 10^5 promastigotes/mL. Drug dilutions were prepared directly in cell suspension in 96-well plates. Plates were incubated at 26 °C for 48 h and the growth of Leishmania promastigotes was determined by the Alamar blue assay as described earlier. Standard fluorescence was measured on a Fluostar Galaxy plate reader (BMG Lab Technologies, Offenburg, Germany) at an excitation wavelength of 544 nm and an emission wavelength of 590 nm. Pentamidine and amphotericin B were used as the standard anti-leishmanial agents. IC50 values were computed from dose-response curves as above. The tested compounds were diluted with six concentrations (from 40–0.0128 μg/mL). Cytotoxicity assay. The in vitro cytotoxicity was determined against human monocytic leukemia cells (THP1) with a simple colorimetric method using the dye Alamar Blue. […] Cells were grown to a density between 0.2 and 1 × 10^6 cells/mL. Culture medium was replaced every 2–3 days with fresh growth medium. DMSO was used as the solvent, and the test compounds was with six concentrations from 10–0.0032 μg/mL.
The in vitro cytotoxicity was determined against human monocytic leukemia cells (THP1) with a simple colorimetric method using the dye Alamar Blue, which was reported in the reference (Mikus, J.; Steverding, D. A simple colorimetric method to screen drug cytotoxicity against Leishmania, using the dye Alamar Blue. Parasitol Int. 2000, 48(3),265-269.). THP1 suspensions were grown in RPMI-1640 medium supplemented with 10% FBS, 2 mM glutamine, 50 μg/mL […]
were grown to a density between 0.2 and 1×10^6 cells/mL. Culture medium was replaced every 2-3 days with fresh growth medium. DMSO was used as the solvent, and the test compounds was with six concentrations from 10-0.0032μg/mL.
For orientation: The colour change of resazurin is a common sign of viable cells or microbes.

Data set [3] deals with 10 fungi. Set-up: method as in PMID 21481593. The conditions noted are these: against 10 fungi; cited from earlier work.
Data set [4] concerns β-(1,3)-glucan synthase. Also noted: method as in PMID 21612375. The conditions noted are these: cited from earlier work.
The mark [5] stands for this setting: THP1 cells (human monocytic leukemia).

Structures are written as SMILES. Converted amounts (≈) assume the structure as drawn.

The term IC50 denotes the concentration that gives 50% inhibition. The melting point is the temperature of the solid-liquid transition. For orientation: CC50 means the concentration that lowers cell viability or growth by half. Read a high CC50 as better tolerance by the cells. `Cc1cccc(C)c1N1C(=O)C(Cl)=C(Cl)C1=O` [Compound 38] registered a melting point of 200.8 to 201.6 °C. In data set [1], the IC50 came to 0.45 µg/mL (≈ 1.67 µM) and the SI is on record as >22.2. For the same compound, the CC50 in data set [2] (THP1 cells) is > 10 µg/mL.
The corresponding values for `CCc1cccc(CC)c1N1C(=O)C(Cl)=C(Cl)C1=O` [Compound 39] are 204.1 to 205.8 °C, 0.13 µg/mL (≈ 0.436 µM), >76.9 and > 10 µg/mL.
In turn, `Cc1c(Cl)cccc1N1C(=O)C(Cl)=C(Cl)C1=O` [Compound 40] had a melting point of 162.3 to 164.1 °C. In data set [1], the IC50 amounted to 0.13 µg/mL (≈ 0.447 µM) and the SI was >76.9. For the same compound, the CC50 in data set [2] (THP1 cells) was > 10 µg/mL.
`Cc1ccc(Cl)cc1N1C(=O)C(Cl)=C(Cl)C1=O` [Compound 41] displayed a melting point of 160.1 to 161.4 °C. In addition, in data set [1], the IC50 came out at 0.11 µg/mL (≈ 0.379 µM) and the SI was >90.9. Also, in data set [2] (THP1 cells), the CC50 was > 10 µg/mL.
`Cc1c(N2C(=O)C(Cl)=C(Cl)C2=O)cccc1[N+](=O)[O-]` [Compound 42] displayed a melting point of 168.8 to 169.9 °C. The “anti-leishmanial activity, times better than amphotericin B” value in data set [1] (L. donovani, relative to amphotericin B) is on record as 10. For the same compound, the IC50 in data set [1] was < 0.0128 µg/mL. Besides, in data set [2] (setting [5]), the CC50 is > 10 µg/mL.
In turn, `CC(C)CN1C(=O)C(Cl)=C(Cl)C1=O` [Compound 44] registered a melting point of 63.8 to 64.5 °C. In data set [1], the half-inhibitory concentration (IC50) came to 0.43 µg/mL (≈ 1.94 µM) and the SI is given as >23.3. Also, in data set [2] (setting [5]), the CC50 is > 10 µg/mL.
For the compound `O=C1C(Cl)=C(Cl)C(=O)N1C1CCCCC1` [Compound 45], the melting point was 67.2 to 68.5 °C. In data set [1], the IC50 turned out to be 0.26 µg/mL (≈ 1.05 µM) and the SI is given as >38.5. Moreover, the CC50 in data set [2] (THP1 cells) is > 10 µg/mL.
What is called MIC is the smallest concentration in the dilution series that meets the test's criterion for growth inhibition. As for `O=C1C=CC(=O)N1CCCCc1ccccc1` [N-(4-phenylbutyl)-maleimide], in data set [3], the MIC was 0.48 to 15.63 µg/mL.
Consider `CCCCN1C(=O)C=CC1=O` [N-butyl-maleimide], for which the MIC in data set [3] is 0.48 to 15.63 µg/mL.
In the case of `CCN1C(=O)C=CC1=O` [N-ethyl-maleimide], the “IC50 β-(1,3)-glucan synthase” value in data set [4] was 8.5 ± 1.1 µg/mL (≈ 67.9 µM).
On to `CC(C)(C)N1C(=O)C=CC1=O` [N-tert-butyl-maleimide], for which the “IC50 β-(1,3)-glucan synthase” value in data set [4] was 13.7 ± 2.3 µg/mL (≈ 89.4 µM).

The values are drawn from PMC6278306, “Anti-Leishmanial and Cytotoxic Activities of a Series of Maleimides: Synthesis, Biological Evaluation and Structure-Activity Relationship” (Molecules, 2018).
